Assays:
[1] = Compatibility test of API and auxiliary materials: relevant substances (impurities) by HPLC; format: physicochemical; settings: for Change of relevant substance (in words): 30 days
Experimental: 4. Using HPLC method to detect the content of the sample and relevant substances.
The parameters of the HPLC method for the detection of the content and relevant substances are detailed in Table 2 below.
Placing the samples under experimental conditions of high temperature (60° C.), high humidity (92.5% RH), acceleration (40° C./75% RH) and illumination (visible light 5500 Lux±500 Lux, near ultraviolet light 85 μw/cm2), […] Submitting the samples for relevant indicator testing (test items include appearance, hygroscopic weight gain, content and relevant substances), and comparing the test results with the control samples (raw material).

[2] = Compatibility test of API and auxiliary materials: appearance; format: physicochemical; settings: opened
Excerpt: The experimental steps are as follows:
1. Taking out the sample according to the sampling time point set in the raw material and auxiliary material compatibility scheme (see Table 1).
2. Recording the appearance of the sample taken out. Appearance abnormalities include: (1) caking, (2) liquefaction, (3) discoloration.
The commonly used auxiliary materials for oral solid preparations are selected to mix with TJ0113 raw material in different proportions, placed under different conditions, and taken out at different time points respectively to judge the compatibility of the raw and auxiliary materials by using appearance, hygroscopic weight gain, content and relevant substances as indicators. According to the auxiliary material manual, the auxiliary materials used are commonly used auxiliary materials for oral solid preparations, and have been included in the current edition of the Chinese Pharmacopoeia, each auxiliary material has a stable nature. In order to objectively evaluate the compatibility of raw material and auxiliary materials used, the compatibility test was conducted on the raw material and each auxiliary material.
The ratio of the raw and auxiliary materials is set according to the “Basic Technical Guidance Principles for Research on Chemical Drug Preparations” and the preparation specifications, the auxiliary materials with a larger amount (such as lactose, microcrystalline cellulose) are mixed according to the ratio of main drug:diluent=1:5; the auxiliary materials with a moderate amount (such as croscarmellose sodium) are mixed according to the ratio of main drug:disintegrant=1:1; the auxiliary materials with a smaller amount (such as magnesium stearate) are mixed according to the ratio of main drug:lubricant=10:1. The manufacturer information and the ratio of raw and auxiliary materials for the compatibility experiment are shown in Table 1 below: […]

- % Impurities RRT1.20 ([1]; 60° C., opened, 30 d): 0.06%
- % Impurities RRT1.29 ([1]; 60° C., opened, 30 d): 0.18%
- % Impurities RRT1.33 ([1]; 60° C., opened, 30 d): 0.07%
- % Impurities RRT1.37 ([1]; 60° C., opened, 30 d): 0.06%
- % Impurities RRT1.41 ([1]; 60° C., opened, 30 d): <0.05%
- % Impurities RRT1.73 ([1]; 60° C., opened, 30 d): <0.05%
- % Impurities RRT1.74 ([1]; 60° C., opened, 30 d): 0.09%
- % Impurities Total ([1]; 60° C., opened, 30 d): 1.40%
- % Impurities RRT0.46 ([1]; 92.5% RH, opened, 0 d): <0.05%
- % Impurities RRT0.89 ([1]; 92.5% RH, opened, 0 d): 0.08%
- % Impurities RRT1.10 ([1]; 92.5% RH, opened, 0 d): <0.05%
- % Impurities RRT1.16 ([1]; 92.5% RH, opened, 0 d): 0.88%
- % Impurities RRT1.20 ([1]; 92.5% RH, opened, 0 d): 0.09%
- % Impurities RRT1.24 ([1]; 92.5% RH, opened, 0 d): <0.05%
- % Impurities RRT1.29 ([1]; 92.5% RH, opened, 0 d): 0.14%
- % Impurities RRT1.33 ([1]; 92.5% RH, opened, 0 d): 0.10%
- % Impurities RRT1.37 ([1]; 92.5% RH, opened, 0 d): 0.07%
- % Impurities RRT1.41 ([1]; 92.5% RH, opened, 0 d): <0.05%
- % Impurities RRT1.43 ([1]; 92.5% RH, opened, 0 d): <0.05%
- % Impurities RRT1.73 ([1]; 92.5% RH, opened, 0 d): <0.05%
- % Impurities RRT1.74 ([1]; 92.5% RH, opened, 0 d): 0.05%
- % Impurities Total ([1]; 92.5% RH, opened, 0 d): 1.41%
- % Impurities RRT0.37 ([1]; 92.5% RH, opened, 10 d): <0.05%
- % Impurities RRT0.46 ([1]; 92.5% RH, opened, 10 d): 0.10%
- % Impurities RRT0.89 ([1]; 92.5% RH, opened, 10 d): 0.14%
- % Impurities RRT1.10 ([1]; 92.5% RH, opened, 10 d): <0.05%
- % Impurities RRT1.16 ([1]; 92.5% RH, opened, 10 d): 1.63%
- % Impurities RRT1.20 ([1]; 92.5% RH, opened, 10 d): 0.07%
- % Impurities RRT1.21 ([1]; 92.5% RH, opened, 10 d): <0.05%
- % Impurities RRT1.24 ([1]; 92.5% RH, opened, 10 d): <0.05%
- % Impurities RRT1.29 ([1]; 92.5% RH, opened, 10 d): 0.12%
- % Impurities RRT1.33 ([1]; 92.5% RH, opened, 10 d): 0.08%
- % Impurities RRT1.37 ([1]; 92.5% RH, opened, 10 d): 0.07%
- % Impurities RRT1.41 ([1]; 92.5% RH, opened, 10 d): 0.10%
- % Impurities RRT1.43 ([1]; 92.5% RH, opened, 10 d): <0.05%
- % Impurities RRT1.54 ([1]; 92.5% RH, opened, 10 d): 0.06%
- % Impurities RRT1.64 ([1]; 92.5% RH, opened, 10 d): 0.13%
- % Impurities RRT1.70 ([1]; 92.5% RH, opened, 10 d): <0.05%
- % Impurities RRT1.73 ([1]; 92.5% RH, opened, 10 d): 0.41%
- % Impurities RRT1.74 ([1]; 92.5% RH, opened, 10 d): 0.08%
- % Impurities Total ([1]; 92.5% RH, opened, 10 d): 2.99%
- % Impurities RRT0.37 ([1]; 92.5% RH, opened, 30 d): <0.05%
- % Impurities RRT0.46 ([1]; 92.5% RH, opened, 30 d): 0.17%
- % Impurities RRT0.89 ([1]; 92.5% RH, opened, 30 d): 0.12%
- % Impurities RRT1.10 ([1]; 92.5% RH, opened, 30 d): <0.05%
- % Impurities RRT1.16 ([1]; 92.5% RH, opened, 30 d): 1.65%
- % Impurities RRT1.20 ([1]; 92.5% RH, opened, 30 d): 0.06%
- % Impurities RRT1.24 ([1]; 92.5% RH, opened, 30 d): 0.05%
- % Impurities RRT1.29 ([1]; 92.5% RH, opened, 30 d): 0.07%
- % Impurities RRT1.33 ([1]; 92.5% RH, opened, 30 d): 0.08%
- % Impurities RRT1.37 ([1]; 92.5% RH, opened, 30 d): 0.08%
- % Impurities RRT1.41 ([1]; 92.5% RH, opened, 30 d): 0.09%
- % Impurities RRT1.43 ([1]; 92.5% RH, opened, 30 d): 0.05%
- % Impurities RRT1.54 ([1]; 92.5% RH, opened, 30 d): <0.05%
- % Impurities RRT1.64 ([1]; 92.5% RH, opened, 30 d): 0.21%
- % Impurities RRT1.70 ([1]; 92.5% RH, opened, 30 d): 0.05%
- % Impurities RRT1.73 ([1]; 92.5% RH, opened, 30 d): 0.53%
- % Impurities RRT1.74 ([1]; 92.5% RH, opened, 30 d): 0.10%
- % Impurities Total ([1]; 92.5% RH, opened, 30 d): 3.31%
- % Impurities RRT0.46 ([1]; Illumination, opened, 0 d): <0.05%
- % Impurities RRT0.89 ([1]; Illumination, opened, 0 d): 0.08%
- % Impurities RRT1.16 ([1]; Illumination, opened, 0 d): 0.88%
- % Impurities RRT1.20 ([1]; Illumination, opened, 0 d): 0.09%
- % Impurities RRT1.29 ([1]; Illumination, opened, 0 d): 0.14%
- % Impurities RRT1.33 ([1]; Illumination, opened, 0 d): 0.10%
- % Impurities RRT1.37 ([1]; Illumination, opened, 0 d): 0.07%
- % Impurities RRT1.41 ([1]; Illumination, opened, 0 d): <0.05%
- % Impurities RRT1.73 ([1]; Illumination, opened, 0 d): <0.05%
- % Impurities RRT1.74 ([1]; Illumination, opened, 0 d): 0.05%
- % Impurities Total ([1]; Illumination, opened, 0 d): 1.41%
- % Impurities RRT0.46 ([1]; Illumination, opened, 10 d): 0.06%
- % Impurities RRT0.89 ([1]; Illumination, opened, 10 d): 0.17%
- % Impurities RRT1.16 ([1]; Illumination, opened, 10 d): 0.91%
- % Impurities RRT1.20 ([1]; Illumination, opened, 10 d): 0.08%
- % Impurities RRT1.29 ([1]; Illumination, opened, 10 d): 0.20%
- % Impurities RRT1.33 ([1]; Illumination, opened, 10 d): 0.09%
- % Impurities RRT1.37 ([1]; Illumination, opened, 10 d): 0.07%
- % Impurities RRT1.41 ([1]; Illumination, opened, 10 d): <0.05%
- % Impurities RRT1.73 ([1]; Illumination, opened, 10 d): 0.05%
- % Impurities RRT1.74 ([1]; Illumination, opened, 10 d): 0.07%
- % Impurities Total ([1]; Illumination, opened, 10 d): 1.70%
- Appearance ([2]; 40° C./75% RH, 30 d): gray powder
- Appearance ([2]; 92.5% RH, 30 d): gray powder
Structure (SMILES): O=C(O)C[S+]([O-])c1cc(NS(=O)(=O)c2ccc(Br)cc2)c2ccccc2c1O (stereo not shown) [API]
- Change of relevant substance (in words) ([1]; acceleration 40° C./75% RH, opened): increased significantly at RRT0.46, RRT1.16, RRT1.63 and RRT1.73, and increased slightly at RRT1.41 and RRT1.43
- Stability of API (summary) ([1]; compatibility test of raw and auxiliary materials): unstable under the conditions of high humidity, illumination and acceleration
- Change of relevant substance (in words) ([1]; high humidity 92.5% RH, opened): increased significantly at RRT0.46, RRT1.16, RRT1.64 and RRT1.73, and increased slightly at RRT1.41 and RRT1.74
- Change of relevant substance (in words) ([1]; illumination, opened): increased slightly at RRT 0.89 and RRT 1.29
- Appearance ([2]; illumination, 30 days): turned into red, and their lower layers did not change color

From patent US20260216108A1, “PHARMACEUTICAL COMPOSITION CONTAINING A MITOPHAGY INDUCER” (HANGZHOU PHECDAMED CO., LTD., priority 2023, published 2026)
